Results: publication PMC6120739 (ACS Omega, 2018)
Entries after “also recorded” stand apart in the source; their conditions may differ.

Legend:
PARP-1 = PARP-1 (Homo sapiens, UniProt P09874); experiment: PARP-1 radioligand binding; conditions: PARP-1 IC50, OVCAR8 cells, [125I]KX1 radioligand, ± SEM, n = 3
UWB1.289 cells = experiment: Cell viability assay; conditions: for EC50: UWB1289, read-out: UWB1.289 EC50; for cytotoxicity in BRCA1-null model, result in words: compared with AZD2461 and olaparib
recombinant human P-gp = recombinant human P-gp (Homo sapiens, UniProt P08183); experiment: Pgp-Glo assay; conditions: 20 µM compound, 1 hr at 37°C, normalized to Na3VO4
UWB1.289 + BRCA1 cells = experiment: Cell viability assay; assay type: cell-based; conditions: for EC50: UWB1289, read-out: UWB1.289 + BRCA1 EC50; for antiproliferative effect in BRCA1-restored UWB1.289, result in words: in contrast to olaparib and AZD2461

Sequence of PARP-1 (P09874 whole entry): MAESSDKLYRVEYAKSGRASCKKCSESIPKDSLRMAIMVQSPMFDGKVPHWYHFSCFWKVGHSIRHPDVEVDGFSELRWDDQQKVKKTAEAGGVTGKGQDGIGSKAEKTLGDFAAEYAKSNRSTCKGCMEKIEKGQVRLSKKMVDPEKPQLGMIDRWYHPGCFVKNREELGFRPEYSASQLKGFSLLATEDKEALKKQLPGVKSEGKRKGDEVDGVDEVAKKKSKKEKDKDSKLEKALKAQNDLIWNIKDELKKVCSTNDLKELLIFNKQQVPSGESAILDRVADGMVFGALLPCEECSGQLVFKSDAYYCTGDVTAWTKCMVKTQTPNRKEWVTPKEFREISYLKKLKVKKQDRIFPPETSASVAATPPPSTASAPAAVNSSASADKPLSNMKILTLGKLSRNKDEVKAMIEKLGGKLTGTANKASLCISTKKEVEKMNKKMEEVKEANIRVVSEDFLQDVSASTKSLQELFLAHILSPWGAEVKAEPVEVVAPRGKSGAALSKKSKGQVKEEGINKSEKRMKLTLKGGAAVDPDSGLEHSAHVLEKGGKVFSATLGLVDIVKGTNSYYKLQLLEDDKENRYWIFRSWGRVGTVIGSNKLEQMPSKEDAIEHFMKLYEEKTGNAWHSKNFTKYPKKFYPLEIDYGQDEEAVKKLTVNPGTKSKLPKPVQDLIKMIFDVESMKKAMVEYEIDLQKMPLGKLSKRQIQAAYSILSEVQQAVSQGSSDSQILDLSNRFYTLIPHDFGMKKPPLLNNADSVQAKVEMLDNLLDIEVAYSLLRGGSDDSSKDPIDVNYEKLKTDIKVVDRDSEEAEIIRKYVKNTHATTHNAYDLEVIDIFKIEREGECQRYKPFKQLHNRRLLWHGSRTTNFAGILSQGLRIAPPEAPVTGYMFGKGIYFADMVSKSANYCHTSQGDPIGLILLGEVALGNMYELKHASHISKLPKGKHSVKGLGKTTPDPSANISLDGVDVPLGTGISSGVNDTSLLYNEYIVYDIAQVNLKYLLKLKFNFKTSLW
Sequence of recombinant human P-gp (P08183 whole entry): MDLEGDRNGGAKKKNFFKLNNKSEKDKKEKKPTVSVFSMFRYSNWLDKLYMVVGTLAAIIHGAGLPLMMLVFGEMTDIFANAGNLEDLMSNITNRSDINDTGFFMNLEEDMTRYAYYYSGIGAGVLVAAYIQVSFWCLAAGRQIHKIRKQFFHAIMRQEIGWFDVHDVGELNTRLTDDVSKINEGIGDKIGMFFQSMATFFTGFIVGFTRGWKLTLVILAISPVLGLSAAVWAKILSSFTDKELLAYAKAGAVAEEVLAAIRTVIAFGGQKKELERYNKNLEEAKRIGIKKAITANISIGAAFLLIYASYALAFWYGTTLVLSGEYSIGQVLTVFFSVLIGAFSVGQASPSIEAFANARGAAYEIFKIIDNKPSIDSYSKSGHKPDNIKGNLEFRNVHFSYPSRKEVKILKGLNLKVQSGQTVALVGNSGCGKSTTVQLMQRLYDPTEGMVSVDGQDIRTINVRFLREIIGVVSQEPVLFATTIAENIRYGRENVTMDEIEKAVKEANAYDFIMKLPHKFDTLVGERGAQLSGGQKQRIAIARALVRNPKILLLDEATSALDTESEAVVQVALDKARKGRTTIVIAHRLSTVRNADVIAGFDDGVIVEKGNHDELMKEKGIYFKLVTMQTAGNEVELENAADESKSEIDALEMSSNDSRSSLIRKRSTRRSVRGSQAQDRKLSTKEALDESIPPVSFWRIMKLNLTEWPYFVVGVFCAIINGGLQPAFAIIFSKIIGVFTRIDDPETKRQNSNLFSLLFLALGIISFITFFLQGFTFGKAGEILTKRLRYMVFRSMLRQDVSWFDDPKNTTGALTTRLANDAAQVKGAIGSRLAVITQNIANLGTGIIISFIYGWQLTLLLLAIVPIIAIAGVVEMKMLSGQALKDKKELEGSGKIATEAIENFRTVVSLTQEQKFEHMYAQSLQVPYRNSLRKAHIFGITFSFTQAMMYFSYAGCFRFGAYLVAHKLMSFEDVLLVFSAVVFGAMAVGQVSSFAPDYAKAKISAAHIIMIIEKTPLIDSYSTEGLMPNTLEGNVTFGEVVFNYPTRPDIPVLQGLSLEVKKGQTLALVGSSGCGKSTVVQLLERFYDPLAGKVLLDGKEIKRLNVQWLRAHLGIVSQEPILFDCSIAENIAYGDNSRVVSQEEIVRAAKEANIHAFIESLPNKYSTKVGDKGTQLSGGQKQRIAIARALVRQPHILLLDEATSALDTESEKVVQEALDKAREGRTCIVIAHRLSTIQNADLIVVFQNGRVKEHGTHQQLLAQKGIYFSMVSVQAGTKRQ

IC50 (PARP-1) [nM]	Compound	EC50 (UWB1.289 cells) [nM]	cytotoxicity in BRCA1-null model, result in words (UWB1.289 cells)	P-gp ATPase interaction (luminescence), result in words (recombinant human P-gp)	EC50 (UWB1.289 + BRCA1 cells) [nM]	antiproliferative effect in BRCA1-restored UWB1.289, result in words (UWB1.289 + BRCA1 cells)
< 10	COC1CN(C(=O)c2cc(Cc3n[nH]c(=O)c4ccccc34)ccc2F)C1 [Compound 2]	2120 ± 200	less cytotoxic than both AZD2461 and olaparib	increase in luminescence	13400 ± 700	poor antiproliferative effects
226.3 ± 1.1	COC1CCC(NC(=O)c2cc(Cc3n[nH]c(=O)c4ccccc34)ccc2F)CC1 (stereo not drawn) [Compound 10]	2420 ± 900			6160 ± 1300	
20.8 ± 1.1	CO[C@H]1C[C@H](NC(=O)c2cc(Cc3n[nH]c(=O)c4ccccc34)ccc2F)C1 [Compound 7]	1940 ± 1100			2810 ± 1400	
107 ± 1.1	CO[C@H]1C[C@@H](NC(=O)c2cc(Cc3n[nH]c(=O)c4ccccc34)ccc2F)C1 [Compound 8]	4350 ± 1700			13900 ± 1100	
< 10	COC1CCN(C(=O)c2cc(Cc3n[nH]c(=O)c4ccccc34)ccc2F)C1 (stereo not drawn) [Compound 3]	1500 ± 400	less cytotoxic than both AZD2461 and olaparib	increase in luminescence; also recorded: weakest activators of P-gp ATPase; also recorded: least activating agents of P-gp ATPase	8580 ± 1100	poor antiproliferative effects
	O=C(c1cc(Cc2n[nH]c(=O)c3ccccc23)ccc1F)N1CCN(C(=O)C2CC2)CC1 [olaparib, reference compound]	900 ± 500		acts more of a P-gp ATPase activator, than 4	1970 ± 400	
< 10	COC1CCCN(C(=O)c2cc(Cc3n[nH]c(=O)c4ccccc34)ccc2F)CC1 (stereo not drawn) [Compound 5]	2840 ± 1400	less cytotoxic than both AZD2461 and olaparib	increase in luminescence; also recorded: weakest activators of P-gp ATPase	3490 ± 200	poor antiproliferative effects
49.5 ± 1.1	COC1CCC(NC(=O)c2cc(Cc3n[nH]c(=O)c4ccccc34)ccc2F)C1 (stereo not drawn) [Compound 9]	1320 ± 500		poor activator of P-pg ATPase; also recorded: least activating agents of P-gp ATPase	9310 ± 1000	
	COC1CCN(C(=O)c2cc(Cc3n[nH]c(=O)c4ccccc34)ccc2F)CC1 [Compound 4, AZD2461, reference compound]	890 ± 700			2280 ± 300	
	COC1CC(NC(=O)c2cc(Cc3n[nH]c(=O)c4ccccc34)ccc2F)C1 (stereo not drawn) [Compound 6]	10100 ± 1500		only P-gp substrate in this study	6620 ± 4300	
